Values of other authors as cited in patent US20230330126A1, “MODIFIED ADENOSINE NUCLEOSIDE FOR USE IN THE TREATMENT OF VIRAL INFECTIONS” (priority 2020, published 2023).

Experiments:
[1] = animal and human studies

SMILES | efficacy compared with theophylline [1] | tolerability profile compared with theophylline [1] | half-life [h]
Cn1c(=O)c2c(ncn2CC2OCCO2)n(C)c1=O [doxofylline, Doxofylline] | comparable efficacy to that of theophylline | better tolerability profile, with significantly fewer side effects | 
O=c1[nH]cnc2c1ncn2[C@@H]1O[C@H](CO)[C@@H](O)[C@H]1O [inosine, Inosine] |  |  | 15
